Results from US20110200535A1, “DAA-PYRIDINE AS PERIPHERAL BENZODIAZEPINE RECEPTOR LIGAND FOR DIAGNOSTIC IMAGING AND PHARMACEUTICAL TREATMENT” (BAYER SCHERING PHARMA AKTIENGESELLSCHAFT, priority 2008, published 2011).
Values joined by “and” are separate entries in the source; they are usually repeats but may differ in a detail not shown here. Equal values may be shown once. One block for each compound: values may come before it.

Tests used:
[1] = molecular target: CBR (central diazepine receptor); test: CBR binding, [^3H]-Flumazenil
PBR = PBR (Homo sapiens, UniProt P30536); test: PBR binding, [^3H]-PK11195
Sequence of PBR (P30536 whole entry, species assumed): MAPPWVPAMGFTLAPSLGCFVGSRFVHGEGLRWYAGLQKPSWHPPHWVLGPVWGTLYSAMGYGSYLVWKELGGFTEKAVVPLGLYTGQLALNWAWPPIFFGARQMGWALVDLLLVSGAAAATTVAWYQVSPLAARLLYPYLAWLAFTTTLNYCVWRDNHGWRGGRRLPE

[2] = Biodistribution of [^18F]-radioactivity in healthy male NMRI mice after intravenous injection (gamma counter); assay type: in vivo; settings: for [^18F]-radioactivity in adrenals / [^18F]-radioactivity in blood / [^18F]-radioactivity in bone / [^18F]-radioactivity in brain (brain uptake) / [^18F]-radioactivity in fat / [^18F]-radioactivity in heart / [^18F]-radioactivity in intestine / [^18F]-radioactivity in kidney / [^18F]-radioactivity in liver / [^18F]-radioactivity in lung / [^18F]-radioactivity in muscle / [^18F]-radioactivity in pancreas / [^18F]-radioactivity in skin / [^18F]-radioactivity in spleen / [^18F]-radioactivity in stomach / [^18F]-radioactivity in testes / [^18F]-radioactivity in thyroid: normal mice, i.v., decay corrected
Method: (§1) The biodistribution of [^18F]-2d and [^18F]-5d was investigated in healthy male NMRI mice (28.3-35.6 g body weight, n=3 animals per time point) at 2, 5, 30, 60 and 180/240 min after intravenous injection of 0.264 MBq [^18F]-2d and 0.268 MBq [^18F]-5d per animal, respectively. Until the indicated time points urine and faeces were quantitatively collected. At the respective time points the mice were sacrificed and the tissues were removed. [^18F]-radioactivity was analyzed in a gamma counter (Tab. 1.1, 2.1 and 1.2, 2.2).

[3] = molecular target: T1, peripheral benzodiazepine receptor (PBR) (Rattus norvegicus, UniProt P16257); test: Ex vivo autoradiography of brain sections, rat kainic acid induced epilepsy model; assay type: in vivo
T1 construct: from tissue; host or cells: rat brain (hippocampus, cerebellum) after i.v. tracer injection
Method: Using a rat kainic acid induced epilepsy model and respective sham controls the accumulation of [^18F]-2d and [^18F]-5d was visualized ex vivo. In brief, epilepsy was induced in rats by injecting kainic acid i.p. At day eight after the start of the kainic acid treatment [^18F]-2d and [^18F]-5d were injected into the tail vein of the rats and their sham treated controls (PBS instead of kainic acid) at a dose of 25.8-35.8 MBq (approximately 1.0 μg) per rat. Thirty minutes after intravenous injection the rats were sacrificed, the brains were taken out, snap frozen and sliced transversally in a cryostat. The slices were exposed to PhosphoImager plates over night. The resulting autoradiographic signals were analyzed qualitatively and quantitatively (FIG. 2.1 A and C, 2.2 A and C). […] To determine the specificity of the [^18F]-2d and [^18F]-5d binding, kainic acid treated rats were co-injected with [^19F]-2e and [^19F]-5e, respectively.
The autoradiographic signals were quantified. The signal intensity in a hippocampal region of interest (ROI) was measured and compared to a ROI in the cerebellum, that was used as reference region.

[4] = Excretion of [^18F]-radioactivity via urine and faeces in normal mice (gamma counter); assay type: in vivo; settings: i.v., decay corrected
Method: as §1

- Ki [1]: > 20000 nM
- Ki (PBR): 1.5 ± 0.15 nM
Structure (SMILES): COc1ccc(OCCF)c(CN(C(C)=O)c2cc(F)ccc2Oc2ccccc2)c1 [[^19F]-FEDAA1106, reference compound]

- Ki [1]: > 20000 nM
- Ki (PBR): 3.6 ± 1.3 nM
Structure (SMILES): COc1ccc(Oc2ncccc2N(Cc2cc(OC)ccc2OCCF)C(C)=O)cc1 [[^19F]-2e, N-[2-(2-fluoroethoxy)-5-methoxybenzyl]-N-[2-(4-methoxyphenoxy)pyridin-3-yl]acetamide]

- Initial elimination of the radioactivity from the brain ([2]; mice, 30 min p.i.): ca. 72%
- Elimination from mouse brain, 2 min/30 min ratio of brain uptake (% ID/g) ([2]; mice, brain, 2 min to 30 min): 3.7
- [^18F]-radioactivity in adrenals ([2]; 2 min): 7.37 ± 2.53 % injected dose/g
- [^18F]-radioactivity in blood ([2]; 2 min): 2.35 ± 0.15 % injected dose/g
- [^18F]-radioactivity in bone ([2]; 2 min): 0.87 ± 0.11 % injected dose/g
- [^18F]-radioactivity in brain (brain uptake) ([2]; 2 min): 1.37±0.04 % injected dose/g
- [^18F]-radioactivity in fat ([2]; 2 min): 0.41 ± 0.49 % injected dose/g
- [^18F]-radioactivity in heart ([2]; 2 min): 16.53 ± 0.48 % injected dose/g
- [^18F]-radioactivity in intestine ([2]; 2 min): 0.82 ± 0.04 % injected dose/g
- [^18F]-radioactivity in kidney ([2]; 2 min): 5.92 ± 1.40 % injected dose/g
- [^18F]-radioactivity in liver ([2]; 2 min): 1.20 ± 0.28 % injected dose/g
- [^18F]-radioactivity in lung ([2]; 2 min): 61.50 ± 10.42 % injected dose/g
- [^18F]-radioactivity in muscle ([2]; 2 min): 1.23 ± 0.47 % injected dose/g
- [^18F]-radioactivity in pancreas ([2]; 2 min): 1.91 ± 0.33 % injected dose/g
- [^18F]-radioactivity in skin ([2]; 2 min): 0.51 ± 0.14 % injected dose/g
- [^18F]-radioactivity in spleen ([2]; 2 min): 1.50 ± 0.20 % injected dose/g
- [^18F]-radioactivity in stomach ([2]; 2 min): 2.15 ± 1.25 % injected dose/g
- [^18F]-radioactivity in testes ([2]; 2 min): 0.48 ± 0.10 % injected dose/g
- [^18F]-radioactivity in thyroid ([2]; 2 min): 2.15 ± 1.49 % injected dose/g
- [^18F]-radioactivity in adrenals ([2]; 5 min): 10.39 ± 3.44 % injected dose/g
- [^18F]-radioactivity in blood ([2]; 5 min): 1.44 ± 0.07 % injected dose/g
- [^18F]-radioactivity in bone ([2]; 5 min): 1.30 ± 0.02 % injected dose/g
- [^18F]-radioactivity in brain (brain uptake) ([2]; 5 min): 0.95 ± 0.07 % injected dose/g
- [^18F]-radioactivity in fat ([2]; 5 min): 0.25 ± 0.06 % injected dose/g
- [^18F]-radioactivity in heart ([2]; 5 min): 17.09 ± 0.64 % injected dose/g
- [^18F]-radioactivity in intestine ([2]; 5 min): 1.36 ± 0.33 % injected dose/g
- [^18F]-radioactivity in kidney ([2]; 5 min): 7.45 ± 1.00 % injected dose/g
- [^18F]-radioactivity in liver ([2]; 5 min): 1.41 ± 0.26 % injected dose/g
- [^18F]-radioactivity in lung ([2]; 5 min): 34.75 ± 6.56 % injected dose/g
- [^18F]-radioactivity in muscle ([2]; 5 min): 1.58 ± 0.52 % injected dose/g
- [^18F]-radioactivity in pancreas ([2]; 5 min): 2.23 ± 0.60 % injected dose/g
- [^18F]-radioactivity in skin ([2]; 5 min): 0.60 ± 0.11 % injected dose/g
- [^18F]-radioactivity in spleen ([2]; 5 min): 4.78 ± 0.73 % injected dose/g
- [^18F]-radioactivity in stomach ([2]; 5 min): 1.89 ± 1.77 % injected dose/g
- [^18F]-radioactivity in testes ([2]; 5 min): 0.50 ± 0.15 % injected dose/g
- [^18F]-radioactivity in thyroid ([2]; 5 min): 2.65 ± 0.58 % injected dose/g
- [^18F]-radioactivity in adrenals ([2]; 30 min): 15.51 ± 0.48 % injected dose/g
- [^18F]-radioactivity in blood ([2]; 30 min): 0.70 ± 0.14 % injected dose/g
- [^18F]-radioactivity in bone ([2]; 30 min): 1.67 ± 0.32 % injected dose/g
- [^18F]-radioactivity in brain (brain uptake) ([2]; 30 min): 0.37±0.04 % injected dose/g
- [^18F]-radioactivity in fat ([2]; 30 min): 0.46 ± 0.10 % injected dose/g
- [^18F]-radioactivity in heart ([2]; 30 min): 7.94 ± 1.52 % injected dose/g
- [^18F]-radioactivity in intestine ([2]; 30 min): 2.15 ± 0.62 % injected dose/g
- [^18F]-radioactivity in kidney ([2]; 30 min): 10.99 ± 1.08 % injected dose/g
- [^18F]-radioactivity in liver ([2]; 30 min): 1.61 ± 0.43 % injected dose/g
- [^18F]-radioactivity in lung ([2]; 30 min): 10.66 ± 0.71 % injected dose/g
- [^18F]-radioactivity in muscle ([2]; 30 min): 1.80 ± 0.17 % injected dose/g
- [^18F]-radioactivity in pancreas ([2]; 30 min): 2.85 ± 0.03 % injected dose/g
- [^18F]-radioactivity in skin ([2]; 30 min): 0.98 ± 0.06 % injected dose/g
- [^18F]-radioactivity in spleen ([2]; 30 min): 6.98 ± 0.82 % injected dose/g
- [^18F]-radioactivity in stomach ([2]; 30 min): 3.49 ± 0.45 % injected dose/g
- [^18F]-radioactivity in testes ([2]; 30 min): 0.79 ± 0.11 % injected dose/g
- [^18F]-radioactivity in thyroid ([2]; 30 min): 3.95 ± 0.81 % injected dose/g
- [^18F]-radioactivity in adrenals ([2]; 60 min): 23.01 ± 8.20 % injected dose/g
- [^18F]-radioactivity in blood ([2]; 60 min): 0.60 ± 0.09 % injected dose/g
- [^18F]-radioactivity in bone ([2]; 60 min): 1.75 ± 0.09 % injected dose/g
- [^18F]-radioactivity in brain (brain uptake) ([2]; 60 min): 0.34 ± 0.02 % injected dose/g
- [^18F]-radioactivity in fat ([2]; 60 min): 0.49 ± 0.06 % injected dose/g
- [^18F]-radioactivity in heart ([2]; 60 min): 5.22 ± 0.61 % injected dose/g
- [^18F]-radioactivity in intestine ([2]; 60 min): 2.33 ± 0.34 % injected dose/g
- [^18F]-radioactivity in kidney ([2]; 60 min): 11.04 ± 0.48 % injected dose/g
- [^18F]-radioactivity in liver ([2]; 60 min): 1.56 ± 0.22 % injected dose/g
- [^18F]-radioactivity in lung ([2]; 60 min): 6.31 ± 0.34 % injected dose/g
- [^18F]-radioactivity in muscle ([2]; 60 min): 2.34 ± 0.23 % injected dose/g
- [^18F]-radioactivity in pancreas ([2]; 60 min): 2.56 ± 0.26 % injected dose/g
- [^18F]-radioactivity in skin ([2]; 60 min): 1.14 ± 0.06 % injected dose/g
- [^18F]-radioactivity in spleen ([2]; 60 min): 6.09 ± 0.50 % injected dose/g
- [^18F]-radioactivity in stomach ([2]; 60 min): 4.37 ± 0.51 % injected dose/g
- [^18F]-radioactivity in testes ([2]; 60 min): 0.84 ± 0.09 % injected dose/g
- [^18F]-radioactivity in thyroid ([2]; 60 min): 3.88 ± 0.10 % injected dose/g
- [^18F]-radioactivity in adrenals ([2]; 180 min): 13.74 ± 7.36 % injected dose/g
- [^18F]-radioactivity in blood ([2]; 180 min): 0.66 ± 0.09 % injected dose/g
- [^18F]-radioactivity in brain (brain uptake) ([2]; 180 min): 0.35 ± 0.02 % injected dose/g
- [^18F]-radioactivity in fat ([2]; 180 min): 2.02 ± 1.06 % injected dose/g
- [^18F]-radioactivity in heart ([2]; 180 min): 2.78 ± 0.18 % injected dose/g
- [^18F]-radioactivity in intestine ([2]; 180 min): 4.28 ± 0.94 % injected dose/g
- [^18F]-radioactivity in kidney ([2]; 180 min): 10.63 ± 1.41 % injected dose/g
- [^18F]-radioactivity in liver ([2]; 180 min): 1.29 ± 0.20 % injected dose/g
- [^18F]-radioactivity in lung ([2]; 180 min): 4.57 ± 1.44 % injected dose/g
- [^18F]-radioactivity in muscle ([2]; 180 min): 1.84 ± 0.29 % injected dose/g
- [^18F]-radioactivity in pancreas ([2]; 180 min): 1.76 ± 0.40 % injected dose/g
- [^18F]-radioactivity in skin ([2]; 180 min): 1.60 ± 0.19 % injected dose/g
- [^18F]-radioactivity in spleen ([2]; 180 min): 4.07 ± 0.51 % injected dose/g
- [^18F]-radioactivity in stomach ([2]; 180 min): 4.37 ± 0.68 % injected dose/g
- [^18F]-radioactivity in testes ([2]; 180 min): 1.14 ± 0.11 % injected dose/g
- [^18F]-radioactivity in thyroid ([2]; 180 min): 3.91 ± 0.75 % injected dose/g
- Hipp/Cereb ratio (signal-to-background ratio, hippocampus/cerebellum) ([3]; rat kainic acid model, 30 min ex vivo autoradiography): 5.6 ± 1.8
- Excretion of [^18F]-radioactivity via faeces ([4]; 2 min): 0.00 ± 0.00 % injected dose
- Excretion of [^18F]-radioactivity via urine ([4]; 2 min): 0.02 ± 0.01 % injected dose
- Excretion of [^18F]-radioactivity via faeces ([4]; 5 min): 0.02 ± 0.03 % injected dose
- Excretion of [^18F]-radioactivity via urine ([4]; 5 min): 0.02 ± 0.01 % injected dose
- Excretion of [^18F]-radioactivity via faeces ([4]; 30 min): 0.01 ± 0.00 % injected dose
- Excretion of [^18F]-radioactivity via urine ([4]; 30 min): 1.72 ± 0.08 % injected dose
- Excretion of [^18F]-radioactivity via faeces ([4]; 60 min): 0.03 ± 0.03 % injected dose
- Excretion of [^18F]-radioactivity via urine ([4]; 60 min): 4.21 ± 0.39 % injected dose
- Excretion of [^18F]-radioactivity via faeces ([4]; 180 min): 0.59±0.61 % injected dose
- Excretion of [^18F]-radioactivity via urine ([4]; 180 min): 13.09±1.33 % injected dose
Structure (SMILES): COc1ccc(Oc2ncccc2N(Cc2cc(OC)ccc2OCC[18F])C(C)=O)cc1 [[^18F]-2d, N-[2-(2-[^18F]fluoroethoxy)-5-methoxybenzyl]-N-[2-(4-methoxyphenoxy)pyridin-3-yl]acetamide]
- [^18F]-radioactivity in bone ([2]; 180 min): 2.3 % injected dose/g and 2.25 ± 0.20 % injected dose/g
- Specificity of binding: autoradiographic signal on co-injection of the corresponding [^19F] compound ([3]; kainic acid treated rats, co-injected with [^19F]-2e and [^19F]-5e, respectively): significantly reduced autoradiographic signal
